Assay results: patent publication US10568963B2, “Multifunctional nanoplatforms for fluorescence imaging and photodynamic therapy developed by post-loading photosensitizer and fluorophore to polyacrylamide nanoparticles” (HEALTH RESEARCH, INC., priority 2009, dated 2020)

Tests used:
[1] = in vivo; cited from earlier work
[2] = test system: Colon 26 tumors; test: In-vivo photodynamic therapy (PDT), tumor regrowth monitored 60 days; conditions: BALB/c mice bearing Colon 26 tumors, PS dose 0.47 moles/kg, light 665 nm, 135 J/cm^2, 75 mW/cm^2, 24 hours post-injection
Procedure: Eight- to twelve-week-old BALB/cAnNCr mice (Jackson Laboratory, Bar Harbor, Me.) were inoculated subcutaneously (s.c.) with 1×10^6 Colon 26 cells. When tumors reached 40-70 mm^3, mice were injected i.v. (tail vein) with PS 1 (formulated in 1% Tween 80/D5W) or PAA nanoconstructs/formulations 6-10 suspended in water and further diluted in D5W. 24 hours post i.v. injection (dose of PS 1: […]), mice (BALB/c mice bearing Colon 26 tumors, 10 mice/group) were restrained in plexiglass holders and tumors were irradiated at 665 nm with a fluence and fluence rate of 135 J/cm^2 at 75 mW/cm^2, respectively, using a pumped argon-dye laser. The growth of tumors was measured two to three times per week and the mice were monitored for a total of 60 days post PDT treatment. When the tumor regrowth was >400 mm^3, the mice were euthanized according to the guidelines of the institute approved animal protocol.

[3] = in vivo; cited from earlier work; remark: listed apart in the source
[4] = Water solubility; type: physicochemical

Compound | skin phototoxicity [1] | PDT response (no tumor regrowth) / tumor cure [2] [%] | PDT response (no tumor regrowth) / tumor cure ([2]; listed as HPPH 1) [%] | plasma half lives [3] [h] | solubility in water [4]
CCCCCCOC(C)c1c(C)c2cc3nc(c4c5[nH]c(cc6nc(cc1[nH]2)C(C)=C6CC)c(C)c5C(=O)C4)[C@@H](CCC(=O)O)[C@@H]3C (stereo partly drawn) [HPPH, 3-(1′-hexyloxyethyl)pyropheophorbide-a] | low skin phototoxicity | 40 | 40 | ~25 | –
CC1(C)C(=CC=C2CCCC(C=CC3=[N+](CCCCS(=O)(=O)[O-])c4ccc5ccccc5c4C3(C)C)=C2Cl)N(CCCCS(=O)(=O)[O-])c2ccc3ccccc3c21.[Na+] [cyanine dye 2, IR820] | – | – | – | – | water insoluble
iodobenzyl pheophorbide-a | – | – | – | ~25 | –
